Test results as given in US8278345B2, “Inhibitors of glutaminyl cyclase” (Probiodrug AG, priority 2006, dated 2012).

Each compound was assayed against hQC (Homo sapiens, UniProt Q16769) (assay: Inhibitor assay for glutaminyl cyclase activity (fluorometric, H-Gln-βNA / H-Gln-AMC)). Conditions: read-out: IC50.
Assay type: biochemical
Experimental: All measurements were performed with a BioAssay Reader HTS-7000Plus for microplates (Perkin Elmer) at 30° C. QC activity was evaluated fluorometrically using H-Gln-βNA. The samples consisted of 0.2 mM fluorogenic substrate, 0.25 U pyroglutamyl aminopeptidase (Unizyme, Hørsholm, Denmark) in 0.2 M Tris/HCl, pH 8.0 containing 20 mM EDTA and an appropriately diluted aliquot of QC in a final volume of 250 μl. Excitation/emission wavelengths were 320/410 nm. The assay reactions were initiated by addition of glutaminyl cyclase. QC activity was determined from a standard curve of β-naphthylamine under assay conditions. One unit is defined as the amount of QC catalyzing the formation of 1 μmol pGlu-βNA from H-Gln-βNA per minute under the described conditions.
In a second fluorometric assay, QC activity was determined using H-Gln-AMC as substrate. Reactions were carried out at 30° C. utilizing the NOVOStar reader for microplates (BMG labtechnologies). The samples consisted of varying concentrations of the fluorogenic substrate, 0.1 U pyroglutamyl aminopeptidase (Qiagen) in 0.05 M Tris/HCl, pH 8.0 containing 5 mM EDTA and an appropriately diluted aliquot of QC in a final volume of 250 μl. Excitation/emission wavelengths were 380/460 nm. The assay reactions were initiated by addition of glutaminyl cyclase. QC activity was determined from a standard curve of 7-amino-4-methylcoumarin under assay conditions. The kinetic data were evaluated using GraFit sofware.
For inhibitor testing, the sample composition was the same as described above, except of the putative inhibitory compound added. For a rapid test of QC-inhibition, samples contained 4 mM of the respective inhibitor and a substrate concentration at 1 KM. For detailed investigations of the inhibition and determination of Ki-values, influence of the inhibitor on the auxiliary enzymes was investigated first. In every case, there was no influence on either enzyme detected, thus enabling the reliable determination of the QC inhibition. The inhibitory constant was evaluated by fitting the set of progress curves to the general equation for competitive inhibition using GraFit software.

Sequence of hQC (Q16769 29-361): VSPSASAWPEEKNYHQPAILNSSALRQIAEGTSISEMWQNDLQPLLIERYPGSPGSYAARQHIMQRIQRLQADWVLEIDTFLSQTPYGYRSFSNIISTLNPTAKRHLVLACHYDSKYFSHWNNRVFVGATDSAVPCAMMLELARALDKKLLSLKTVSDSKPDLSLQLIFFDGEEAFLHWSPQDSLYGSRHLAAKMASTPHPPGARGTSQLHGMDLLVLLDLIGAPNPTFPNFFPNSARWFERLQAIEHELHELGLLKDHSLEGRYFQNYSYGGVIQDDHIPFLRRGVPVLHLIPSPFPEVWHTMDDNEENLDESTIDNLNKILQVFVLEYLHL

Structure (SMILES)	IC50 [nM]
CC1=C(O)C(=O)N(CCCn2ccnc2)C1C (stereo not shown) [Compound 31, 3-Hydroxy-1-(3-imidazol-1-yl-propyl)-4,5-dimethyl-1,5-dihydro-pyrrol-2-one]	6700
CC1=C(O)C(=O)N(CCCn2ccnc2)C1/C=C/c1ccccc1 (stereo not shown) [Compound 33, 3-Hydroxy-1-(3-imidazol-1-yl-propyl)-4-methyl-5-(styryl)-1,5-dihydro-pyrrol-2-one]	3100
CC1=C(O)C(=O)N(CCCn2ccnc2)C1C1CCC=CO1 (stereo not shown) [Compound 35, 5-(3,4-Dihydro-2H-pyran-2-yl)-3-hydroxy-1-(3-imidazol-1-yl-propyl)-4-methyl-1,5-dihydro-pyrrol-2-one]	2200
CC1=C(O)C(=O)N(CCCn2ccnc2)C1C1=CCCCC1 (stereo not shown) [Compound 36, 5-Cyclohex-1-enyl-3-hydroxy-1-(3-imidazol-1-yl-propyl)-4-methyl-1,5-dihydro-pyrrol-2-one]	2200
CC1=C(O)C(=O)N(CCCn2ccnc2)C1C(F)(F)F (stereo not shown) [Compound 38, 3-Hydroxy-1-(3-imidazol-1-yl-propyl)-4-methyl-5-trifluoromethyl-1,5-dihydro-pyrrol-2-one]	2200
CC1=C(O)C(=O)N(CCCn2ccnc2)C1c1ncc[nH]1 (stereo not shown) [Compound 40, 3-Hydroxy-5-(1H-imidazol-2-yl)-1-(3-imidazol-1-yl-propyl)-4-methyl-1,5-dihydro-pyrrol-2-one]	2200
CC1=C(O)C(=O)N(CCCn2ccnc2)C1c1c(O)ccc2ccccc12 (stereo not shown) [Compound 42, 3-Hydroxy-5-(2-hydroxy-naphthalen-1-yl)-1-(3-imidazol-1-yl-propyl)-4-methyl-1,5-dihydro-pyrrol-2-one]	2200
CC1=C(O)C(=O)N(CCCn2ccnc2)C1c1ccccn1 (stereo not shown) [Compound 43, 3-Hydroxy-1-(3-imidazol-1-yl-propyl)-4-methyl-5-pyridin-2-yl-1,5-dihydro-pyrrol-2-one]	2200
CC1=C(O)C(=O)N(CCCn2ccnc2)C1c1ccncc1 (stereo not shown) [Compound 44, 3-Hydroxy-1-(3-imidazol-1-yl-propyl)-4-methyl-5-pyridin-4-yl-1,5-dihydro-pyrrol-2-one]	3100
CC1=C(O)C(=O)N(CCCn2ccnc2)C1c1cccs1 (stereo not shown) [Compound 45, 3-Hydroxy-1-(3-imidazol-1-yl-propyl)-4-methyl-5-thiophen-2-yl-1,5-dihydro-pyrrol-2-one]	3100
CC1=C(O)C(=O)N(CCCn2ccnc2)C1C1CC1 (stereo not shown) [Compound 46, 5-Cyclopropyl-3-hydroxy-1-(3-imidazol-1-yl-propyl)-4-methyl-1,5-dihydro-pyrrol-2-one]	2200
CCCCC1C(C)=C(O)C(=O)N1CCCn1ccnc1 (stereo not shown) [Compound 48, 5-Butyl-3-hydroxy-1-(3-imidazol-1-yl-propyl)-4-methyl-1,5-dihydro-pyrrol-2-one]	2200
CCC1C(C)=C(O)C(=O)N1CCCn1ccnc1 (stereo not shown) [Compound 49, 5-Ethyl-3-hydroxy-1-(3-imidazol-1-yl-propyl)-4-methyl-1,5-dihydro-pyrrol-2-one]	4900
CC1=C(O)C(=O)N(CCCn2ccnc2)C1c1ccc(O)cc1 (stereo not shown) [Compound 52, 3-Hydroxy-5-(4-hydroxy-phenyl)-1-(3-imidazol-1-yl-propyl)-4-methyl-1,5-dihydro-pyrrol-2-one]	1300
CC1=C(O)C(=O)N(CCCn2ccnc2)C1c1cccc(O)c1 (stereo not shown) [Compound 53, 3-Hydroxy-5-(3-hydroxy-phenyl)-1-(3-imidazol-1-yl-propyl)-4-methyl-1,5-dihydro-pyrrol-2-one]	1300
CCCC1C(C(C)C)=C(O)C(=O)N1CCCn1ccnc1 (stereo not shown) [Compound 55, 3-Hydroxy-1-(3-imidazol-1-yl-propyl)-4-isopropyl-5-propyl-1,5-dihydro-pyrrol-2-one]	5800
CC(C)C1=C(O)C(=O)N(CCCn2ccnc2)C1c1cc[nH]n1 (stereo not shown) [Compound 56, 3-Hydroxy-1-(3-imidazol-1-yl-propyl)-4-isopropyl-5-(1H-pyrazol-3-yl)-1,5-dihydro-pyrrol-2-one]	2200
Cc1ccc(C2C(C(C)C)=C(O)C(=O)N2CCCn2ccnc2)o1 (stereo not shown) [Compound 57, 3-Hydroxy-1-(3-imidazol-1-yl-propyl)-4-isopropyl-5-(5-methyl-furan-2-yl)-1,5-dihydro-pyrrol-2-one]	1300
CC(C)C1=C(O)C(=O)N(CCCn2ccnc2)C1c1ccc2[nH]ccc2c1 (stereo not shown) [Compound 58, 3-Hydroxy-1-(3-imidazol-1-yl-propyl)-5-(1H-indol-5-yl)-4-isopropyl-1,5-dihydro-pyrrol-2-one]	3100
CC(C)C1=C(O)C(=O)N(CCCn2ccnc2)C1c1ccccc1O (stereo not shown) [Compound 60, 3-Hydroxy-5-(2-hydroxy-phenyl)-1-(3-imidazol-1-yl-propyl)-4-isopropyl-1,5-dihydro-pyrrol-2-one]	9400
CC(C)C1=C(O)C(=O)N(CCCn2ccnc2)C1c1ccc(CO)o1 (stereo not shown) [Compound 63, 3-Hydroxy-5-(5-hydroxymethyl-furan-2-yl)-1-(3-imidazol-1-yl-propyl)-4-isopropyl-1,5-dihydro-pyrrol-2-one]	3100
CC(C)C1=C(O)C(=O)N(CCCn2ccnc2)C1/C=C/c1ccccc1 (stereo not shown) [Compound 64, 3-Hydroxy-1-(3-imidazol-1-yl-propyl)-4-isopropyl-5-(styryl)-1,5-dihydro-pyrrol-2-one]	3100
CC(C)C1=C(O)C(=O)N(CCCn2ccnc2)C1c1ccccc1 (stereo not shown) [Compound 65, 3-Hydroxy-1-(3-imidazol-1-yl-propyl)-4-isopropyl-5-phenyl-1,5-dihydro-pyrrol-2-one]	3100

Second part, the compound after the results:

IC50 [nM]	Structure (SMILES)
400	CC1=C(O)C(=O)N(CCCn2ccnc2)C1c1ccc(C)c(C)c1 (stereo not shown) [Compound 29, 5-(3,4-Dimethyl-phenyl)-3-hydroxy-1-(3-imidazol-1-yl-propyl)-4-methyl-1,5-dihydro-pyrrol-2-one]
400	CCCCCC1C(C)=C(O)C(=O)N1CCCn1ccnc1 (stereo not shown) [Compound 30, 3-Hydroxy-1-(3-imidazol-1-yl-propyl)-4-methyl-5-pentyl-1,5-dihydro-pyrrol-2-one]
1300	CC1=C(O)C(=O)N(CCCn2ccnc2)C1c1ccc(CO)o1 (stereo not shown) [Compound 32, 3-Hydroxy-5-(5-hydroxymethyl-furan-2-yl)-1-(3-imidazol-1-yl-propyl)-4-methyl-1,5-dihydro-pyrrol-2-one]
1300	CC1=C(O)C(=O)N(CCCn2ccnc2)C1c1ccccc1 (stereo not shown) [Compound 34, 3-Hydroxy-1-(3-imidazol-1-yl-propyl)-4-methyl-5-phenyl-1,5-dihydro-pyrrol-2-one]
400	CC1=C(O)C(=O)N(CCCn2ccnc2)C1c1c[nH]c2cc(C)ccc12 (stereo not shown) [Compound 37, 3-Hydroxy-1-(3-imidazol-1-yl-propyl)-4-methyl-5-(6-methyl-1H-indol-3-yl)-1,5-dihydro-pyrrol-2-one]
400	CC1=C(O)C(=O)N(CCCn2ccnc2)C1c1c[nH]c2ccccc12 (stereo not shown) [Compound 39, 3-Hydroxy-1-(3-imidazol-1-yl-propyl)-5-(1H-indol-3-yl)-4-methyl-1,5-dihydro-pyrrol-2-one]
1300	CC1=C(O)C(=O)N(CCCn2ccnc2)C1Cc1ccccc1 (stereo not shown) [Compound 41, 5-Benzyl-3-hydroxy-1-(3-imidazol-1-yl-propyl)-4-methyl-1,5-dihydro-pyrrol-2-one]
400	CC1=C(O)C(=O)N(CCCn2ccnc2)C1c1ccco1 (stereo not shown) [Compound 47, 5-(Furan-2-yl-)3-hydroxy-1-(3-imidazol-1-yl-propyl)-4-methyl-1,5-dihydro-pyrrol-2-one]
400	CC1=C(O)C(=O)N(CCCn2ccnc2)C1c1cccc(Cl)c1 (stereo not shown) [Compound 50, 5-(3-Chloro-phenyl)-3-hydroxy-1-(3-imidazol-1-yl-propyl)-4-methyl-1,5-dihydro-pyrrol-2-one]
1300	CC1=C(O)C(=O)N(CCCn2ccnc2)C1c1ccccc1F (stereo not shown) [Compound 51, 5-(2-Fluoro-phenyl)-3-hydroxy-1-(3-imidazol-1-yl-propyl)-4-methyl-1,5-dihydro-pyrrol-2-one]
400	Cc1ccc(C2C(C(C)C)=C(O)C(=O)N2CCCn2ccnc2)cc1 (stereo not shown) [Compound 54, 3-Hydroxy-1-(3-imidazol-1-yl-propyl)-4-isopropyl-5-p-tolyl-1,5-dihydro-pyrrol-2-one]
400	COc1ccc(C2C(C(C)C)=C(O)C(=O)N2CCCn2ccnc2)cc1 (stereo not shown) [Compound 59, 3-Hydroxy-1-(3-imidazol-1-yl-propyl)-4-isopropyl-5-(4-methoxy-phenyl)-1,5-dihydro-pyrrol-2-one]
400	Cc1ccc(C2C(C(C)C)=C(O)C(=O)N2CCCn2ccnc2)cc1C (stereo not shown) [Compound 61, 5-(3,4-Dimethyl-phenyl)-3-hydroxy-1-(3-imidazol-1-yl-propyl)-4-isopropyl-1,5-dihydro-pyrrol-2-one]
40	CCCCCC1C(C(C)C)=C(O)C(=O)N1CCCn1ccnc1 (stereo not shown) [Compound 62, 3-Hydroxy-1-(3-imidazol-1-yl-propyl)-4-isopropyl-5-pentyl-1,5-dihydro-pyrrol-2-one]
